Source: the NIST ThermoML archive (doi:10.1016/j.jct.2011.06.009)
± gives the expanded uncertainty stated by the source.

Assay: refractive index (Na D-line) (dimensionless)
Conditions: 101.33 kPa, Liquid, Standard Abbe refractometry

| refractive index (298.1 K) | refractive index (293.1 K) | Structure (SMILES) |
| --- | --- | --- |
| 1.4509 ± 0.0008 |  | CCCC[n+]1ccc(C)cc1.F[B-](F)(F)F [1-butyl-4-methylpyridinium tetrafluoroborate] |
|  | 1.422 ± 0.0008 | CCCCCCCCCCCC [dodecane] |
|  | 1.4915 ± 0.0008 | CCCc1ccccc1 [propylbenzene] |

| Structure (SMILES) | refractive index (298.1 K) | refractive index (293.1 K) |
| --- | --- | --- |
| CCCCc1ccccc1 [butylbenzene] |  | 1.4895 ± 0.0008 |
